Assay results from PMC5820429 (Influenza and Other Respiratory Viruses, 2018).

Parameters: species or system patients
Conditions: in vivo

**Q.** Which “Time to alleviation of symptoms, shorter in treated vs non‐treated patients” value does the source give for `CCOC(=O)C1=C[C@@H](OC(CC)CC)[C@H](NC(C)=O)[C@@H](N)C1` [oseltamivir] here?
**A.** The value was 1 days.
